Literature values in patent publication US6949538B2, “Compounds, compositions, and methods” (Cytokinetics, Inc., priority 2002, dated 2005).

Test system: A549 cells
Conditions: data provided by National Cancer Institute, Developmental Therapeutic Program
For CC(=O)O[C@H]1C(=O)[C@@]2(C)[C@H]([C@H](OC(=O)c3ccccc3)[C@]3(O)C[C@H](OC(=O)[C@H](O)[C@@H](NC(=O)c4ccccc4)c4ccccc4)C(C)=C1C3(C)C)[C@]1(OC(C)=O)CO[C@@H]1C[C@@H]2O [paclitaxel], the GI50 is listed as 4 nM. In the case of NC(=O)NO [hydroxyurea], the GI50 is listed as 500000 nM. For COc1cccc2c1C(=O)c1c(O)c3c(c(O)c1C2=O)C[C@@](O)(C(=O)CO)C[C@@H]3O[C@H]1C[C@H](N)[C@H](O)[C@H](C)O1 [doxorubicin], the GI50 is listed as 63 nM. For O=c1[nH]cc(F)c(=O)[nH]1 [5-fluorouracil], the GI50 is listed as 1000 nM.
